Source: ChEMBL document CHEMBL4699511, “Cedrol, a Sesquiterpene Alcohol, Enhances the Anticancer Efficacy of Temozolomide in Attenuating Drug Resistance via Regulation of the DNA Damage Response and MGMT Expression” (J Nat Prod, 2020)
The source made the active and inactive calls. No cut-off for these calls is given here.

Key:
[1] = tested on: DBTRG-05MG; assay: Induction of cell cycle arrest in human DBTRG-05MG cells assessed as accumulation at S phase at 206 uM after 6 hrs by propidium iodide staining based flow cytometric analysis (reference value: 22.76 +/- 1.56%); assay type: functional
[2] = Effect on p38 expression in rat RG2 cells at 206 uM after 48 hrs by Western blot analysis (reference value: 1); assay type: functional
[3] = tested on: RG2; assay: Induction of cell cycle arrest in rat RG2 cells assessed as accumulation at G0/G1 phase at 206 uM after 6 hrs by propidium iodide staining based flow cytometric analysis (reference value: 57.81 +/- 1.9%); assay type: functional
[4] = tested on: RG2; assay: Induction of cell cycle arrest in rat RG2 cells assessed as accumulation at S phase at 206 uM after 48 hrs by propidium iodide staining based flow cytometric analysis (reference value: 20.15 +/- 2.44%); assay type: functional
[5] = tested on: DBTRG-05MG; assay: Antitumour activity against human DBTRG-05MG cells xenografted in BALB/c nude mouse assessed as reduction in tumour growth at 5 mg/kg, ip for 5 days and measured every 2 days; assay type: functional, organism-based; details: time 5.0 day
[6] = tested on: RG2; assay: Induction of apoptosis in rat RG2 cells assessed as phosphorylated caspace-3 expression at 206 uM after 48 hrs by Western blot analysis (reference value: 1); assay type: functional
[7] = tested on: DBTRG-05MG; assay: Induction of cell cycle arrest in human DBTRG-05MG cells assessed as accumulation at S phase at 112.4 uM after 6 hrs in presence of TMZ by propidium iodide staining based flow cytometric analysis (reference value: 22.76 +/- 1.56%); assay type: functional
[8] = tested on: DBTRG-05MG; assay: Synergistic cytotoxicity against human DBTRG-05MG cells assessed as synergistic effect index at 89.9 uM after 48 hrs in presence of 515.1 uM TMZ by MTT assay; assay type: functional
[9] = tested on: RG2; assay: Synergistic cytotoxicity against rat RG2 cells assessed as combination index at 112.4 uM after 48 hrs in presence of 309 uM TMZ by MTT assay; assay type: functional
[10] = tested on: RG2; assay: Induction of cell cycle arrest in rat RG2 cells assessed as accumulation at G0/G1 phase at 112.4 uM after 6 hrs by propidium iodide staining based flow cytometric analysis (reference value: 57.81 +/- 1.9%); assay type: functional
[11] = tested on: RG2; assay: Synergistic cytotoxicity against rat RG2 cells assessed as combination index at 89.9 uM after 48 hrs in presence of 206 uM TMZ by MTT assay; assay type: functional
[12] = Synergistic cytotoxicity against rat CTX TNA2 cells assessed as combination index at 112.4 uM after 48 hrs in presence of 103 uM TMZ by MTT assay; assay type: cell-based; details: ctx tna2, 48 h
[13] = tested on: DBTRG-05MG; assay: Induction of apoptosis in human DBTRG-05MG cells assessed as Bax expression at 112.4 uM after 48 hrs in presence of TMZ by Western blot analysis (reference value: 1); assay type: functional
[14] = tested on: DBTRG-05MG; assay: Induction of cell cycle arrest in human DBTRG-05MG cells assessed as accumulation at G0/G1 phase at 112.4 uM after 48 hrs in presence of TMZ by propidium iodide staining based flow cytometric analysis (reference value: 47.16 +/- 1.55%); assay type: functional
[15] = tested on: RG2; assay: Induction of cell cycle arrest in rat RG2 cells assessed as accumulation at G2/M phase at 112.4 uM after 12 hrs in presence of TMZ by propidium iodide staining based flow cytometric analysis (reference value: 20.04 +/- 0.55%); assay type: functional
[16] = tested on: RG2; assay: Inhibition of p38 phosphorylation at Tyr182 residues in rat RG2 cells at 112.4uM after 48 hrs in presence of TMZ by Western blot analysis (reference value: 1); assay type: cell-based
[17] = tested on: DBTRG-05MG; assay: Induction of DNA damage in human DBTRG-05MG cells at 112.4 uM after 48 hrs in presence of TMZ by p.H2A.X staining based fluorescent immunocytochemistry method; assay type: functional, cell-based
[18] = tested on: DBTRG-05MG; assay: Synergistic cytotoxicity against human DBTRG-05MG cells assessed as combination index at 112.4 uM after 48 hrs in presence of 309 uM TMZ by MTT assay; assay type: functional
[19] = Synergistic cytotoxicity against rat CTX TNA2 cells assessed as synergistic effect index at 134.9 uM after 48 hrs in presence of 412.1 uM TMZ by MTT assay; assay type: cell-based; details: ctx tna2, 48 h
[20] = Synergistic cytotoxicity against rat CTX TNA2 cells assessed as synergistic effect index at 112.4 uM after 48 hrs in presence of 515.1 uM TMZ by MTT assay; assay type: cell-based; details: ctx tna2, 48 h
[21] = tested on: DBTRG-05MG; assay: Synergistic cytotoxicity against human DBTRG-05MG cells assessed as combination index at 89.9 uM after 48 hrs in presence of 103 uM TMZ by MTT assay; assay type: functional
[22] = tested on: DBTRG-05MG; assay: Induction of apoptosis in human DBTRG-05MG cells assessed as cleaved caspace-9 expression at 112.4 uM after 48 hrs by Western blot analysis (reference value: 1); assay type: functional
[23] = tested on: DBTRG-05MG; assay: Induction of apoptosis in human DBTRG-05MG cells assessed as phosphorylated caspace-3 expression at 112.4 uM after 48 hrs by Western blot analysis (reference value: 1); assay type: functional
[24] = tested on: RG2; assay: Synergistic cytotoxicity against rat RG2 cells assessed as synergistic effect index at 134.9 uM after 48 hrs in presence of 206 uM TMZ by MTT assay; assay type: functional
[25] = tested on: RG2; assay: Synergistic cytotoxicity against rat RG2 cells assessed as synergistic effect index at 89.9 uM after 48 hrs in presence of 206 uM TMZ by MTT assay; assay type: functional
[26] = Effect on JNK expression in rat RG2 cells at 112.4uM after 48 hrs in presence of TMZ by Western blot analysis (reference value: 1); assay type: functional
[27] = tested on: RG2; assay: Induction of apoptosis in rat RG2 cells assessed as Bcl2 expression at 112.4 uM after 48 hrs by Western blot analysis (reference value: 1); assay type: functional
[28] = tested on: DBTRG-05MG; assay: Potentiation of TMZ-induced antitumor activity against human DBTRG-05MG cells xenografted in BALB/c nude mouse assessed as increase DNA damage at 75 mg/kg, sc co-treated with TMZ for 18 days by p.H2A.X staining based fluorescent immunocytochemistry method; assay type: functional, organism-based; details: time 18.0 day
[29] = tested on: DBTRG-05MG; assay: Induction of cell cycle arrest in human DBTRG-05MG cells assessed as accumulation at G0/G1 phase at 112.4 uM after 24 hrs in presence of TMZ by propidium iodide staining based flow cytometric analysis (reference value: 47.16 +/- 1.55%); assay type: functional
[30] = Synergistic cytotoxicity against rat CTX TNA2 cells assessed as combination index at 112.4 uM after 48 hrs in presence of 206 uM TMZ by MTT assay; assay type: cell-based; details: ctx tna2, 48 h
[31] = tested on: DBTRG-05MG; assay: Synergistic cytotoxicity against human DBTRG-05MG cells assessed as synergistic effect index at 112.4 uM after 48 hrs in presence of 309 uM TMZ by MTT assay; assay type: functional
[32] = Synergistic cytotoxicity against rat CTX TNA2 cells assessed as synergistic effect index at 134.9 uM after 48 hrs in presence of 103 uM TMZ by MTT assay; assay type: cell-based; details: ctx tna2, 48 h
[33] = tested on: DBTRG-05MG; assay: Induction of cell cycle arrest in human DBTRG-05MG cells assessed as accumulation at S phase at 112.4 uM after 12 hrs in presence of TMZ by propidium iodide staining based flow cytometric analysis (reference value: 22.76 +/- 1.56%); assay type: functional

**Q.** For `Cn1nnc2c(C(N)=O)ncn2c1=O` [TEMOZOLOMIDE], which Activity [1] is on record?
**A.** Its Activity is 24.76%.

**Q.** What about the “fold change (FC)” value [2] of the same molecule?
**A.** The value was 0.7.

**Q.** And the Activity [3]?
**A.** The Activity was 54.73%.

**Q.** What about the Activity [4] of the same molecule?
**A.** Its Activity is 18.32%.

**Q.** What about the Activity [5] of the same molecule?
**A.** The Activity was “Active”.

**Q.** What about the “fold change (FC)” value [6] of the same molecule?
**A.** Its value is 1.1.

**Q.** What does the source list for `C[C@@H]1CC[C@H]2C(C)(C)[C@H]3C[C@@]12CC[C@@]3(C)O` [CEDROL]?
**A.** Activity [7]: 18.29%; Activity_index [8]: 0.77; CI [9]: 0.9; Activity [10]: 60.95%; CI [11]: 0.98; CI [12]: 1.24; fold change (FC) [13]: 1.7; Activity [14]: 41.16%; Activity [15]: 18.79%; fold change (FC) [16]: 1.8; Activity [17]: Active; CI [18]: 0.57; Activity_index [19]: 0.58; Activity_index [20]: 0.7; CI [21]: 0.74; fold change (FC) [22]: 1.1; fold change (FC) [23]: 1.1; Activity_index [24]: 0.91; Activity_index [25]: 0.69; fold change (FC) [26]: 0.5; fold change (FC) [27]: 1.1; Activity [28]: Active; Activity [29]: 48.93%; CI [30]: 1.17; Activity_index [31]: 0.87; Activity_index [32]: 0.28; Activity [33]: 16.75%
